Patent publication US10525110B2, “Methods for inducing partial apoptosis using caspase polypeptides” (Bellicum Pharmaceuticals, Inc., priority 2013, dated 2020)
Like-named read-outs stand apart in the source and are kept apart here.

Tests used:
[1] = Phase I study of AP1903 in healthy volunteers; format: in vivo; conditions: male, human, plasma, intravenous, 0.4 mg/kg; reached within 15-30 min
Experimental: FIG. 49(A-B) provides the results of a dose-escalation study in normal male volunteers. FIG. 49A is a line graph and 49B is a chart. Healthy volunteers were infused with the indicated doses of AP1903 and at various time points, serum levels of AP1903 were measured using HPLC analysis.
In a previous Phase I study of AP1903, 24 healthy volunteers were treated with single doses of AP1903 for Injection at dose levels of 0.01, 0.05, 0.1, 0.5 and 1.0 mg/kg infused IV over 2 hours. […] Iuliucci J D, et al., J Clin Pharmacol. 41: 870-9, 2001.

CD3+ΔCD19+ cells = assay: CASPALLO phase 1 trial: AP1903 in patients with GvHD after iCasp9 T cell infusion; format: in vivo, human
human CD3+CD19+ T cells = assay: AP1903 dose-dependent elimination in vivo of iCasp9-transduced T cells in NSG mice; design: species or system immune deficient mice (NSG); conditions: i.p., wild-type iCasp9-transduced T cells, 24 hours
Experimental: (§1) FIG. 65A-B: AP1903 dose-dependent elimination in vivo of T cells transduced with wild-type iCasp9. T cells were transduced with SFG-iCasp9-2A-ΔCD19 retrovirus and injected i.v. into immune deficient mice (NSG). After 24 hours, mice were injected i.p. with AP1903 (0-5 mg/kg). After an additional 24 hours, mice were sacrificed and lymphocytes from the spleen (65A) and peripheral blood (65B) were isolated and analyzed by flow cytometry for the frequency of human CD3^+CD19^+ T cells.
as §1, with “66:” for “65A-B:”, “D330E” for “wild-type”, “SFG-iCasp9-D330E-2A-ΔCD19” for “SFG-iCasp9-2A-ΔCD19”, “(A)” for “(65A) and peripheral blood (65B)”

cells = assay: AP1903 needed in vitro for effective signaling of cells; format: cell-based
[2] = cited from earlier work

SMILES: CC[C@H](C(=O)N1CCCC[C@H]1C(=O)O[C@H](CCc1ccc(OC)c(OC)c1)c1cccc(OCC(=O)NCCNC(=O)COc2cccc([C@@H](CCc3ccc(OC)c(OC)c3)OC(=O)[C@@H]3CCCCN3C(=O)[C@@H](CC)c3cc(OC)c(OC)c(OC)c3)c2)c1)c1cc(OC)c(OC)c(OC)c1 (relative stereo) [AP1903, 2-Piperidinecarboxylic acid, 1-[(2S)-1-oxo-2-(3,4,5-trimethoxyphenyl)butyl]-, 1,2-ethanediylbis[imino(2-oxo-2,1-ethanediyl)oxy-3,1-phenylene[(1R)-3-(3,4-dimethoxyphenyl)propylidene]] ester, [2S-[1(R*),2R*[S*[S*[1(R*),2R*]]]]]-(9Cl)]
- Cmax [1]: 100 to 1000 nM
- effect of a single dose on GvHD-causing and virus specific T cells (CD3+ΔCD19+ cells; human, in vivo): can reduce or eliminate the subpopulation of T cells causing GvHD, but can spare virus specific CTLs
- further reduction of CD3+ΔCD19+ cells (CD3+ΔCD19+ cells; within 24 hours): additional log killing
- dose sufficient to eliminate most modified T cells in vivo (human CD3+CD19+ T cells): 0.5 mg/kg
- amount needed in vitro for effective signaling of cells (cells): 10 to 100 nM
- safety and tolerability in healthy volunteers ([2]; 0.01 mg/kg to 1.0 mg/kg dose range, listed as AP1903 for Injection): safe and well tolerated at all dose levels
- relation of plasma levels to dose ([2]; 0.01-1.0 mg/kg): directly proportional to dose
- plasma level as % of maximal concentration ([2]; 2 hours post-dose): ~7%
- plasma level as % of maximal concentration ([2]; 10 hours post-dose): ~1%
- well-tolerated doses ([2]; Phase I study): up to 1 mg/kg
